{"source": "patent US20020049160A1", "about": "“New strategy for drug design” (priority 2000, published 2002)", "key": {"NMDA receptors": {"target": "T1, NMDA receptors (Rattus norvegicus, UniProt P35439)", "T1 construct": "Single dorsal horn neurons were isolated from the lamina I and II of the lumbar spinal cord; endogenous in cells; host or cells: acutely dissociated rat lumbar dorsal horn neurons (lamina I/II): control Long-Evans rats or CFA-inflamed Sprague-Dawley rats", "experiment": "NMDA-evoked currents in isolated dorsal horn neurons of control rats, whole-cell patch clamp, with or without PKCM in the pipette", "assay_type": "cell-based", "protocol": "Single dorsal horn neurons were isolated from the lamina I and II of the lumbar spinal cord of 13-20 days old Long-Evans rats. After the rat had been anaesthetized with pentobarbitone (0.1 mg/g), the lumbar region of the spinal cord was rapidly removed from the animal and put into an ice-cold, oxygenated dissecting solution. […] Prior to an experiment, neurons from a slice were dissociated by triturating the tissue with a series of fire-polished Pasteur pipettes.\nElectrical recordings: NMDA-receptor mediated currents in normal dorsal horn neurons were examined using the whole-cell patch clamp recording technique at room temperature (20-23° C.). The pipette solution contained (in mM): 120 cesium methanesulphonate, 20 CsCl, 1 CaCl2, 5 BAPTA, 1 MgCl2, 10 HEPES, 2.5 Na2ATP, adjusted to pH 7.2 with CsOH. The external solution contained (mM): NaCl,140; KCl, 4; CaCI2, 2.5; MgCl2, 0.02; HEPES,10; Glucose,10; Sucrose,10; adjusted to pH 7.4 with KOH. […] The resistances of patch pipettes were <20 Mohms. Current recordings were made with an Axopatch-200A patch clamp amplifier (Axon Instruments, Foster City, Calif.). The recorded whole-cell currents were filtered at 2 kHz and sampled at 200 μs per point. The average data are expressed as mean±SEM. Statistical significance of the data was evaluated using Student's t-test or one-way ANOVA. A level of P<0.05 was considered statistically significant."}, "[1]": {"test_system": "system L-amino acid transporter", "details": "cited from earlier work"}, "GABAA receptors": {"test_system": "GABAA receptors", "details": "cited from earlier work"}, "[2]": {"details": "rabbits; cited from earlier work"}, "[3]": {"test_system": "formalin-induced nociceptive responses", "details": "formalin test, cited from earlier work"}, "[4]": {"test_system": "N and P/Q subtypes of Ca^2+ channel", "details": "cited from earlier work"}, "GABAB receptors": {"target": "GABAB receptors (Homo sapiens, UniProt Q9UBS5)", "sequence (Q9UBS5 15-961 limits assumed)": "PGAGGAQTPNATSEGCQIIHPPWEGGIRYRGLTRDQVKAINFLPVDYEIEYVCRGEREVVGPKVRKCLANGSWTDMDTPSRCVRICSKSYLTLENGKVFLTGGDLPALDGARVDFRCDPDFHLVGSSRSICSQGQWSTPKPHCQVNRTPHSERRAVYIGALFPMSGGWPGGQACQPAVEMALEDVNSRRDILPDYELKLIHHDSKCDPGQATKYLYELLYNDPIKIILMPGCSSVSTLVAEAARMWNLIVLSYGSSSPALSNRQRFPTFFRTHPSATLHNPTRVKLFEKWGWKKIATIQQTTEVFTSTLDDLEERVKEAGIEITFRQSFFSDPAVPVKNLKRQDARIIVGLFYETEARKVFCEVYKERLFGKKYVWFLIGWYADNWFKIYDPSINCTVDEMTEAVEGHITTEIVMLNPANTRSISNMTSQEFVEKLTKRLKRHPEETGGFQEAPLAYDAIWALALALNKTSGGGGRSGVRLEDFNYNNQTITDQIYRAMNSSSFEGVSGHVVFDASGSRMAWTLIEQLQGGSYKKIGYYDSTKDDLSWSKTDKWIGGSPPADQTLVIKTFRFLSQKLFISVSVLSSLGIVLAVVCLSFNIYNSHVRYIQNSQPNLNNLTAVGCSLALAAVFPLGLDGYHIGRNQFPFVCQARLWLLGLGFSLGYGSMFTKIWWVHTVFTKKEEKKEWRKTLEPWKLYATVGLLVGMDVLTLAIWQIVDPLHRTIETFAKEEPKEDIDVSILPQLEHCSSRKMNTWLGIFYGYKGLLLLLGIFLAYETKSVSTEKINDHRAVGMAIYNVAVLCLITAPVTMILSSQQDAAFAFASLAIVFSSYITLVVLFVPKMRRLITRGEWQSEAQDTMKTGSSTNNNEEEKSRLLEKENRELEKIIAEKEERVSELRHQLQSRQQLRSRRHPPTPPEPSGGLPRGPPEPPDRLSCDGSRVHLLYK", "sequence (O75899 42-941 partner)": "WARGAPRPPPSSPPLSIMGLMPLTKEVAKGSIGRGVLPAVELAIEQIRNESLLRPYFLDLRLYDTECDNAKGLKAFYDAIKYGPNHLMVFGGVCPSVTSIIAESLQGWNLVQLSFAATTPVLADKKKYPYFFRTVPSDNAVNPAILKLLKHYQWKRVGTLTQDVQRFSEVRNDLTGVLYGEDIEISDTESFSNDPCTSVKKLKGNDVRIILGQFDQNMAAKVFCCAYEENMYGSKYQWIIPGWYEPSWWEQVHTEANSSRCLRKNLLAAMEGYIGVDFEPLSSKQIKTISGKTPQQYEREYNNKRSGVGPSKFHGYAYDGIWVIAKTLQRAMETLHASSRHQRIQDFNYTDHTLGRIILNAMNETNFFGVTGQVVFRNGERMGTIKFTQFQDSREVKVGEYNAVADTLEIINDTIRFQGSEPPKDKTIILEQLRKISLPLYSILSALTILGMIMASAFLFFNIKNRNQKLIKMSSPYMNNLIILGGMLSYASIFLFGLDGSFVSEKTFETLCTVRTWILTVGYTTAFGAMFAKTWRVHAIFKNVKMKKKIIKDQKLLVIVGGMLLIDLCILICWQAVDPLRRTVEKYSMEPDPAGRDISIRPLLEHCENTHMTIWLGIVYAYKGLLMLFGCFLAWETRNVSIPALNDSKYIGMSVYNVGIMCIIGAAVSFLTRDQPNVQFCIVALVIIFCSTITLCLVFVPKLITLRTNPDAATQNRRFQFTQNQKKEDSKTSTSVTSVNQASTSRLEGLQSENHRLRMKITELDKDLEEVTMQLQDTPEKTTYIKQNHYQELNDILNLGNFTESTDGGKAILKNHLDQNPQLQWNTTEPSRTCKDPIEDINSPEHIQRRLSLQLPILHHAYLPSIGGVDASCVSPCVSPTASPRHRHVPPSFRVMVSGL", "details": "cited from earlier work"}, "[5]": {"details": "rodents; cited from earlier work"}}}
{"smiles": "NC(CCCP(=O)(O)O)C(=O)O", "note": "(stereo not shown) [APV, 2-amino-5-phosphonovaleric acid]", "values": [{"measurement": "block of NMDA-evoked inward current", "setting": "NMDA receptors; 20 μM APV, control dorsal horn neuron", "value": "blocked"}]}
{"smiles": "NCC1(CC(=O)O)CCCCC1", "note": "[GBP, 1-(aminomethyl)cyclohexaneacetic acid]", "values": [{"measurement": "interaction with system L-amino acid transporter", "setting": "[1]", "value": "interact"}, {"measurement": "interaction with GABAA receptors", "setting": "GABAA receptors", "value": "does not interact"}, {"measurement": "fetal loss", "setting": "[2]", "value": "postimplantation fetal loss"}, {"measurement": "nociceptive behaviors in the transient phase", "setting": "[3]; first phase", "value": "no effect"}, {"measurement": "sustained phase of formalin-induced nociceptive responses", "setting": "[3]; second phase", "value": "potently blocking"}, {"measurement": "inhibition of Ca^2+ channel activity", "setting": "[4]", "value": "< 20", "unit": "%"}, {"measurement": "interaction with GABAB receptors", "setting": "GABAB receptors", "value": "does not interact"}, {"measurement": "fetotoxicity", "setting": "[5]", "value": "fetotoxic"}]}
{"smiles": "COc1ccc2c(c[n+](C)c3c4cc5c(cc4ccc23)OCO5)c1OC", "note": "[chelerythrine]", "values": [{"measurement": "block of the action of PKCM on NMDA-activated currents", "setting": "NMDA receptors; 6.6 μM chelerythrine in external solution", "value": "completely blocked"}]}
